The values that follow come from US12428406B2 (PMV Pharmaceuticals, Inc., priority 2019, dated 2025).

The target in this test is T1, p53 Y220C (Homo sapiens, UniProt P04637, Y220C).
T1 construct: The recombinant protein was a truncation mutant containing only amino acids 94-312 of p53; made in house; host or cells: E. coli
T1 sequence (P04637 94-312, change not shown): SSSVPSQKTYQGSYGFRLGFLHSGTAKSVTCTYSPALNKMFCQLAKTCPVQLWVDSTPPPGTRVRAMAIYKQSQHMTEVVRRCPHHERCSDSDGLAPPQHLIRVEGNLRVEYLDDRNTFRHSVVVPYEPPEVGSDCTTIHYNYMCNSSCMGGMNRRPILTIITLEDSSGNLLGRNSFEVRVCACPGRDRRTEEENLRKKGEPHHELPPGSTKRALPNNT
As to the kind of experiment: In vitro DNA binding activity assay (HTRF / TR-FRET): stabilization of p53 Y220C and increase of its DNA binding activity. It is filed as biochemical. The settings on record: recombinant His-tagged p53 Y220C DNA binding domain (aa 94-312), biotin-labeled consensus DNA, incubated at 27° C. or 29° C. for 60 min. The procedure, abridged: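 Homogeneous time-resolved fluorescence with E. coli-derived p53 Y220C and biotinylated consensus DNA. Room-temperature incubations of 15 and 20 min precede reading. SC150 denotes the compound concentration required for 50% increased DNA binding.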
Take `COc1cc(S(=O)(=O)N(C)CCO)ccc1NCC#Cc1cc2c(NC3CCOCC3)cccc2n1CC(F)(F)F` [Compound 996A, N-(2-hydroxyethyl)-3-methoxy-N-methyl-4-[(3-{4-[(oxan-4-yl)amino]-1-(2,2,2-trifluoroethyl)-1H-indol-2-yl}prop-2-yn-1-yl)amino]benzene-1-sulfonamide]: the “SC150 (concentration of the compound required to increase the DNA binding activity by 50%)” value is reported as “+ (+ = 0 μM ≤ SC150 < 0.05 μM)”. The result for `COc1cc(S(N)(=O)=O)ccc1NCC#Cc1cc2c(N[C@H]3CC[C@@H](N(CCO)CCO)CC3)cccc2n1CC(F)(F)F` [Compound 45A, 3-methoxy-4-{[3-(4-{[(1S,4S)-4-[bis(2-hydroxyethyl)amino]cyclohexyl]amino}-1-(2,2,2-trifluoroethyl)-1H-indol-2-yl)prop-2-yn-1-yl]amino}benzene-1-sulfonamide] reads “+ (+ = 0 μM ≤ SC150 < 0.05 μM)”; that for `COc1cc(C(=O)NCC(C)O)ccc1NCC#Cc1cc2c(N[C@@H]3CCN(C)C[C@@H]3F)cccc2n1CC(F)(F)F` (stereo partly drawn) [Compound 1057A, 4-{[3-(4-{[(3S,4R)-3-fluoro-1-methylpiperidin-4-yl]amino}-1-(2,2,2-trifluoroethyl)-1H-indol-2-yl)prop-2-yn-1-yl]amino}-N-(2-hydroxypropyl)-3-methoxybenzamide], “+ (+ = 0 μM ≤ SC150 < 0.05 μM)”. Take `CNC(=O)c1ccc(NCC#Cc2cc3c(N[C@H]4CC[C@H](N5CC6(COC6)C5)CC4)cccc3n2CC(F)(F)F)c(O)c1` [Compound 248A, 3-hydroxy-N-methyl-4-{[3-(4-{[(1R,4R)-4-{2-oxa-6-azaspiro[3.3]heptan-6-yl}cyclo-hexyl]amino}-1-(2,2,2-trifluoroethyl)-1H-indol-2-yl)prop-2-yn-1-yl]amino}benzamide]: the “SC150 (concentration of the compound required to increase the DNA binding activity by 50%)” value was “+ (+ = 0 μM ≤ SC150 < 0.05 μM)”.

In the case of `CN(C)[C@H]1CC[C@@H](Nc2cccc3c2cc(C#CCOc2ccc(S(C)(=O)=O)cc2N)n3CC(F)(F)F)CC1` [Compound 94A, (1S,4S)-N4-{2-[3-(2-amino-4-methane-sulfonylphenoxy)prop-1-yn-1-yl]-1-(2,2,2-trifluoroethyl)-1H-indol-4-yl}-N^1,N^1-dimethylcyclohexane-1,4-diamine], the “SC150 (concentration of the compound required to increase the DNA binding activity by 50%)” value is “+++ (+++ = 0.1 μM ≤ SC150 < 0.2 μM)”. The result for `COc1cc(C(=O)O)ccc1NCC#Cc1cc2c(N[C@H]3CC[C@H](N4CC5(COC5)C4)CC3)cccc2n1CC(F)(F)F` [Compound 279A, 4-((3-(4-(((1R,4R)-4-(2-oxa-6-azaspiro[3.3]heptan-6-yl)cyclohexyl)amino)-1-(2,2,2-trifluoroethyl)-1H-indol-2-yl)prop-2-yn-1-yl)amino)-3-methoxybenzoic acid] reads “+ (+ = 0 μM ≤ SC150 < 0.05 μM)”.

Regarding `CNC(=O)c1ccc(NCC#Cc2cc3c(N[C@H]4CCN(C)C[C@H]4F)cccc3n2CC(F)(F)F)c(OC)c1` [Compound 805A, 4-{[3-(4-{[(3R,4S)-3-fluoro-1-methylpiperidin-4-yl]amino}-1-(2,2,2-trifluoroethyl)-1H-indol-2-yl)prop-2-yn-1-yl]amino}-3-methoxy-N-methylbenzamide], the “SC150 (concentration of the compound required to increase the DNA binding activity by 50%)” value is listed as “+ (+ = 0 μM ≤ SC150 < 0.05 μM)”. The entry for `CCN1CC[C@H](Nc2cccc3c2cc(C#CCNc2ccc(S(C)(=O)=O)cc2OC)n3CC(F)(F)F)[C@H](F)C1` [Compound 813A] is “+ (+ = 0 μM ≤ SC150 < 0.05 μM)”; for `CNS(=O)(=O)c1ccc(NCC#Cc2cc3c(N[C@H]4CC[C@@H](N(C)C)CC4)cccc3n2CC(F)(F)F)c(OC)c1` [Compound 72A, 3-methoxy-N-methyl-4-{[3-(4-{[(1S,4S)-4-(dimethylamino)cyclohexyl]amino}-1-(2,2,2-trifluoroethyl)-1H-indol-2-yl)prop-2-yn-1-yl]amino}benzene-1-sulfonamide] it is “+ (+ = 0 μM ≤ SC150 < 0.05 μM)”. The entry for `COc1cc(S(C)(=O)=O)ccc1NCC#Cc1cc2c(N[C@H]3CC[C@@H](N4CC5CC(C4)O5)CC3)cccc2n1CC(F)(F)F` [Compound 399A, 2-{3-[(4-methanesulfonyl-2-methoxyphenyl)amino]prop-1-yn-1-yl}-N-[(1S,4S)-4-{6-oxa-3-azabicyclo[3.1.1]heptan-3-yl}cyclohexyl]-1-(2,2,2-trifluoroethyl)-1H-indol-4-amine] is “+ (+ = 0 μM ≤ SC150 < 0.05 μM)”; for `COCC(O)CN1CCC(Nc2cccc3c2cc(C#CCNc2ccc(S(C)(=O)=O)cc2OC)n3CCC(F)(F)F)CC1` (stereo not shown) [Compound 711A, 1-{4-[(2-{3-[(4-methanesulfonyl-2-methoxyphenyl)amino]prop-1-yn-1-yl}-1-(3,3,3-trifluoropropyl)-1H-indol-4-yl)amino]piperidin-1-yl}-3-methoxypropan-2-ol] it is “++ (++ = 0.05 μM ≤ SC150 < 0.1 μM)”; for `COC(=O)c1ccc(NCC#Cc2cc3c(N[C@H]4CCN(CCO)C[C@H]4F)cccc3n2CC(F)(F)F)c(OC)c1` [Compound 903A, methyl 4-{[3-(4-{[(3R,4S)-3-fluoro-1-(2-hydroxyethyl)piperidin-4-yl]amino}-1-(2,2,2-trifluoroethyl)-1H-indol-2-yl)prop-2-yn-1-yl]amino}-3-methoxybenzoate] it is “+ (+ = 0 μM ≤ SC150 < 0.05 μM)”. The result for `COc1cc(C(=O)NC2CCOCC2)ccc1NCC#Cc1cc2c(N[C@H]3CCN(C)C[C@H]3F)cccc2n1CC(F)(F)F` (racemic) [Compound 818A, rac-4-{[3-(4-{[(3R,4S)-3-fluoro-1-methylpiperidin-4-yl]amino}-1-(2,2,2-trifluoroethyl)-1H-indol-2-yl)prop-2-yn-1-yl]amino}-3-methoxy-N-(oxan-4-yl)benzamide] reads “+ (+ = 0 μM ≤ SC150 < 0.05 μM)”. Turning to `CN(C)[C@H]1CC[C@@H](Nc2cccc3c2cc(C#CCNc2ccc(S(C)(=O)=O)cc2OCC#N)n3CC(F)(F)F)CC1` [Compound 82A, 2-(5-methanesulfonyl-2-{[3-(4-{[(1S,4S)-4-(dimethylamino)cyclohexyl]amino}-1-(2,2,2-trifluoro-ethyl)-1H-indol-2-yl)prop-2-yn-1-yl]amino}phenoxy)acetonitrile], the “SC150 (concentration of the compound required to increase the DNA binding activity by 50%)” value was “+ (+ = 0 μM ≤ SC150 < 0.05 μM)”. The entry for `COCC(O)CN1CCC(Nc2cccc3c2cc(C#CCNc2ccc(C(N)=O)cc2OC)n3CC(F)(F)F)CC1` (stereo not shown) [Compound 620A, 4-{[3-(4-{[1-(2-hydroxy-3-methoxypropyl)piperidin-4-yl]amino}-1-(2,2,2-trifluoroethyl)-1H-indol-2-yl)prop-2-yn-1-yl]amino}-3-methoxybenzamide] is “+ (+ = 0 μM ≤ SC150 < 0.05 μM)”; for `CNC(=O)c1ccc(NCC#Cc2cc3c(N[C@@H]4CCNC[C@@H]4F)cccc3n2CC(F)(F)F)c(OC)c1` [Compound 857A] it is “+ (+ = 0 μM ≤ SC150 < 0.05 μM)”; for `COc1cc(S(C)(=O)=O)ccc1NCC#Cc1cc2c(N[C@H]3CCN(CCO)C[C@H]3F)cccc2n1CC(F)(F)F` [Compound 854A, 2-[(3R,4S)-3-fluoro-4-[(2-{3-[(4-methanesulfonyl-2-methoxyphenyl)amino]prop-1-yn-1-yl}-1-(2,2,2-trifluoroethyl)-1H-indol-4-yl)amino]piperidin-1-yl]ethan-1-ol] it is “+ (+ = 0 μM ≤ SC150 < 0.05 μM)”. `CCC(=O)NS(=O)(=O)c1ccc(NCC#Cc2cc3c(NC4CCN(CC(O)COC)CC4)cccc3n2CC(F)(F)F)c(OC)c1` (stereo not shown) [Compound 607A, N-(4-{[3-(4-{[1-(2-hydroxy-3-methoxypropyl)piperidin-4-yl]amino}-1-(2,2,2-trifluoroethyl)-1H-indol-2-yl)prop-2-yn-1-yl]amino}-3-methoxybenzenesulfonyl) propanamide]: the “SC150 (concentration of the compound required to increase the DNA binding activity by 50%)” value is reported as “+ (+ = 0 μM ≤ SC150 < 0.05 μM)”.

For the molecule `CNC(=O)c1ccc(NCC#Cc2cc3c(N[C@H]4CC[C@@H](N5CCOCC5)CC4)cccc3n2CC(F)(F)F)c(OC)c1` [Compound 173A, 3-methoxy-N-methyl-4-{[3-(4-{[(1S,4S)-4-(morpholin-4-yl)cyclohexyl]amino}-1-(2,2,2-trifluoro-ethyl)-1H-indol-2-yl)prop-2-yn-1-yl]amino}benzamide], the “SC150 (concentration of the compound required to increase the DNA binding activity by 50%)” value is recorded as “+ (+ = 0 μM ≤ SC150 < 0.05 μM)”. The result for `COc1cc(C(=O)NC(CCO)CCO)ccc1NCC#Cc1cc2c(N[C@@H]3CCN(C)C[C@@H]3F)cccc2n1CC(F)(F)F` [Compound 965A, N-(1,5-dihydroxypentan-3-yl)-4-{[3-(4-{[(3S,4R)-3-fluoro-1-methylpiperidin-4-yl]amino}-1-(2,2,2-trifluoroethyl)-1H-indol-2-yl)prop-2-yn-1-yl]amino}-3-methoxybenzamide] reads “+ (+ = 0 μM ≤ SC150 < 0.05 μM)”; that for `COCC(CN1CCC(Nc2cccc3c2cc(C#CCNc2ccc(S(C)(=O)=O)cc2OC)n3CC(F)(F)F)CC1)OC` (stereo not shown) [Compound 580A, N-[1-(2,3-dimethoxypropyl)piperidin-4-yl]-2-{3-[(4-methanesulfonyl-2-methoxyphenyl)amino]prop-1-yn-1-yl}-1-(2,2,2-trifluoroethyl)-1H-indol-4-amine], “+ (+ = 0 μM ≤ SC150 < 0.05 μM)”. The result for `CCC(=O)OCCN1CCC(Nc2cccc3c2cc(C#CCNc2ccc(S(N)(=O)=O)cc2OC)n3CC(F)(F)F)CC1` [Compound 608A, 2-{4-[(2-{3-[(2-methoxy-4-sulfamoylphenyl)amino]prop-1-yn-1-yl}-1-(2,2,2-trifluoroethyl)-1H-indol-4-yl)amino]piperidin-1-yl}ethyl propanoate] reads “+ (+ = 0 μM ≤ SC150 < 0.05 μM)”.
